From US12606833B2, “Modified mini-nucleosome core proteins and use in nucleic acid delivery” (priority 2020, dated 2026)
Where no end group is shown, it is not given here. [ ]: non-standard residue; d: D form. LINKER = not defined here

Assays:
retina and RPE cells = assay: GFP expression in retina and RPE after intravitreal injection in mice; assay type: in vivo, Balb/c mice; details: 1.5 micrograms, GFP plasmid, FIGS. 10 and 12
Method: In the present Example, Balb/c mice were anesthetized by IP injection with Ketamine/Xylazine (90-100 mg/kg+10 mg/kg) and positioned underneath a microscope. Mice eyes were dilated with topical Tropicamide (1%) and 1 μl of loaded mini-nucleosomes (total dose 1.5 micrograms in mice) were injected into the vitreous cavity using 32 gauge blunt needle passing through the incision made by a 25-gauge needle below the limbus. At various time points, mice were perfused with 10 ml of 1xPBS, and then sacrificed using standard techniques. Mice were enucleated and eyecups were collected and incubated in 4% paraformaldehyde overnight. The eyecups were washed with 1xPBS, then immersed in 15% sucrose for few hours and then in 30% sucrose solution overnight for cryopreservation. The eyecups were then placed in a plastic vial and frozen using OCT compound for cryo-sectioning. 10-micron thick tissue sections were obtained for staining. The retinal sections were mounted with mounting media with or without DAPI, coverslip and sealed. Images were acquired by Leica SP5. For wholemount imaging, eyecups were fixed in 4% paraformaldehyde overnight. Eyecups were washed in 1xPBS, retina was removed and the remaining eyecup or RPE wholemount was processed for staining. The RPE tissue was wholemounted with mounting media, coverslip and sealed. Images were acquired by Leica SP5.

[1] = Transmission Electron Microscopy (TEM) of loaded mini-nucleosomes; assay type: physicochemical; details: luciferase plasmid (SEQ ID NO: 396) condensed with core protein, formulated in water
Method: To form loaded mini-nucleosomes represented in FIG. 7, core proteins were synthesized by solid phase synthesis using trifluoroacetate buffers. 200 micrograms of DNA (SEQ ID NO: 396) were added to 1 milligram of lyophilized core proteins and vortexed together, and purified to produce loaded mini-nucleosomes (FIG. 7). Buffer exchange was performed and final formulation of mini-nucleosome was made in sterile, endotoxin free water. 1 microgram of each kind of mini-nucleosomes was diluted in water and then placed on grids that were stained with freshly prepared in 0.75% uranyl acetate in methanol solution for two minutes. Grids were dipped in 100% ethanol and then blotted into lens absorbent paper. The grids were then air-dried for few minutes with film side up and taken for imaging with Hammatsu ORCA HR camera (FIG. 7).

RPE cells = assay: GFP expression in rat retinal tissue after intraocular delivery; assay type: in vivo; details: rat eyes, FIG. 11
Description: To selectively transduce photoreceptors, the present Example utilized core proteins like those of SEQ ID NO:394. […] This neuronal attachment domain has not been previously applied for non-viral vectors to target neurons. The present disclosure provides that this neuronal targeted vector can transduce neurons in the brain via local or systemic administration. The present disclosure further provides for targeting photoreceptor binding and internalization by incorporating lectin binding domains (described in Table 4) in mini-nucleosomes for attachment to photoreceptor extracellular matrix to enhance uptake. […] Moreover, more than one domain could be utilized to selectively transduce a plurality of diverse cell types. This core protein (SEQ ID NO: 390) with integrin binding properties may also be utilized for delivery of nucleic acids to other cell types that express high levels of aVB5 integrin. The present disclosure further provides use of other intra-ocular injection techniques such as subretinal, suprachoroidal, intra-cameral, or topical administration to target photoreceptors, RPE, Mueller cells or other cell types in the retina.

lung epithelium = assay: GFP expression after intranasal delivery (lung sections with CFTR staining, whole lung imaging, trachea); assay type: in vivo, Balb/c mice; details: 5-week post injection, FIGS. 15 and 16
Method: In the present Example, Balb/c mice were anesthetized by IP injection with Ketamine/Xylazine (90-100 mg/kg+10 mg/kg) and the anesthetized mice were positioned underneath a microscope for visual of the nasal area for intranasal delivery. 1 μl of loaded mini-nucleosome (SEQ ID NO: 390+GFP plasmid) solution was delivered into the nasal cavity every few seconds until 12 microliters were delivered to each nasal side. Total dose of 25 micrograms was delivered. Following sacrifice, mice lung was processed to obtain 10 micron thick sections. Sections were washed in PBS and incubated in blocking buffer (0.1% TritonX-100, 1% BSA, 3% donkey serum) for 1 hr and then incubated in CFTR antibody (prepared on blocking buffer) blocking buffer overnight at 4 degree Celsius. Next day wash in PBS 3×5 min and incubated in AlexaFlour-555 (Donkey Anti-rabbit IgG secondary) in blocking buffer at RT for 1 hour and washed in PBS 3×5 min. Mounting media was added and coverslip was applied and sealed. Native fluorescence of GFP was obtained in the 486 nm channel of Leica SP5 scope in the 486-nm wavelength and CFTR expression in the 555-nm channel.
In the present Example, whole lung tissue and biodistribution via mini-nucleosome was also evaluated (FIG. 15). […] Whole tissues were placed in the Odyssey imager for detecting GFP native fluorescence.

skeletal muscle cells = assay: GFP expression in leg muscle after intramuscular injection (dystrophin immunolabeling); assay type: in vivo, Balb/c mice; details: 17.5 μg per leg, 3-month time point, FIG. 18
Method: Balb/c mice were anesthetized by IP injection with Ketamine/Xylazine (90-100 mg/kg+10 mg/kg) and several loaded mini-nucleosomes were injected into both leg muscle at 17.5 μg doses per leg using an insulin syringe (Total dose 35 micrograms per mice). Mice were sacrificed at various time points and leg muscle were obtained for tissue sections. […] One skilled in the art may contemplate combining such domains with other domains known for muscle tropism.
To validate muscle specificity of expression of genes encoded by the nucleic acid cargo, we utilized dystrophin immunolabeling as an endogenous secondary marker. […] Native fluorescence of GFP was obtained in the 486-nm channel of Leica SP5 scope. Dystrophin in red is the RFP channel (555-nm). Untransduced muscle cells in figure also serve as internal control for differentiation between GFP signal and autofluorescence.

| Substance | GFP expression / uptake in mouse retina and RPE (retina and RPE cells) | Shape of loaded mini-nucleosome (TEM) [1] | GFP fluorescence in muscle tissue sections (skeletal muscle cells) | further results |
| --- | --- | --- | --- | --- |
| KKRHRK-[LINKER]-LRE-[LINKER]KRHRKLRRRRRLKRHRKKRHRK-[LINKER]-LRE-[LINKER]-K (KKRHRK[LINKER]LRE[LINKER]KRHRKLRRRRRLKRHRKKRHRK[LINKER]LRE[LINKER]K; not fully specified; numbers in words are those of the source; reading uncertain; also: linkers of unspecified length between segments (after 6, 9, 31, 34)) [SEQ ID NO: 394] | transduction into ganglion cells, bipolar cells and photoreceptors |  |  |  |
| KKKRK-[LINKER]-KTKKK-[LINKER]-AK-[LINKER]-KALKKK-[LINKER]-KKGKKKKRRRRKAAPKK (KKKRK[LINKER]KTKKK[LINKER]AK[LINKER]KALKKK[LINKER]KKGKKKKRRRRKAAPKK; not fully specified; numbers in words are those of the source; reading uncertain; also: linkers of unspecified length between segments (after 5, 10, 12, 18)) [SEQ ID NO: 392] | enhanced uptake into the RPE |  |  |  |
| KKKRK-[LINKER]-NGR-[LINKER]-KRKRKKRHRKKKKRRRRKRHRK-[LINKER]-NGR-[LINKER]-KKK (KKKRK[LINKER]NGR[LINKER]KRKRKKRHRKKKKRRRRKRHRK[LINKER]NGR[LINKER]KKK; not fully specified; numbers in words are those of the source; reading uncertain; also: linkers of unspecified length between segments (after 5, 8, 30, 33)) [SEQ ID NO: 390] |  | rod/lobular shaped |  | GFP expression in rat retinal tissue (RPE cells): transduce RPE cells in rat eyes exclusively; GFP native fluorescence in whole lung tissue / sustained expression (lung epithelium): high levels of sustained expression |
| KKKRHRKRKRKRKRRRRKKK-[LINKER]-ASSLNIAK-[LINKER]-RRRR (KKKRHRKRKRKRKRRRRKKK[LINKER]ASSLNIAK[LINKER]RRRR; not fully specified; numbers in words are those of the source; reading uncertain; also: linkers of unspecified length between segments (after 20 and 28)) [SEQ ID NO: 389] |  |  | didn't exhibit GFP fluorescence |  |
| KKKRHRKKKKK-[LINKER]-RGD-[LINKER]-KKKK-[LINKER]-NTQIH-[LINKER]-RRRRR-[LINKER]-TPH-[LINKER]-KK (KKKRHRKKKKK[LINKER]RGD[LINKER]KKKK[LINKER]NTQIH[LINKER]RRRRR[LINKER]TPH[LINKER]KK; not fully specified; numbers in words are those of the source; reading uncertain; also: linkers of unspecified length between segments (after 11, 14, 18, 23, 28, 31)) [SEQ ID NO: 391] |  | mixture of circular and rod like molecules | sharp green fluorescence in skeletal muscle cells |  |
